ChEMBL document CHEMBL1201862, “PubChem BioAssay data set” (2004)
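In this assay, cells in 96-well plates receive the compound at five concentrations for 48 hours. Endpoints are linearly interpolated between the surrounding concentrations. GI50: concentration for 50% inhibition of growth.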 The source made the active and inactive calls. No stated cut-off is given here; in the data, active = GI50 up to about 1.1 µM and inactive = higher.

What was measured:
Assay in all cases: growth of human tumour cells (NCI), 48 h
786-0 = system: 786-0
A498 = system: A498
A549 = system: A549
ACHN = system: ACHN
CAKI-1 = system: CAKI-1
CCRF-CEM = system: CCRF-CEM
COLO 205 = system: COLO 205
DLD-1 = system: DLD-1
DMS-114 = system: DMS-114
DMS-273 = system: DMS-273
EKVX = system: EKVX
HCC 2998 = system: HCC 2998
HCT-116 = system: HCT-116
HCT-15 = system: HCT-15
HL-60 = system: HL-60
HOP-18 = system: HOP-18
HOP-62 = system: HOP-62
HOP-92 = system: HOP-92
HT-29 = system: HT-29
IGROV-1 = system: IGROV-1
K562 = system: K562
KM-20L2 = system: KM-20L2
KM12 = system: KM12
LXFL 529 = system: LXFL 529
M14 = system: M14
M19-MEL = system: M19-MEL
MOLT-4 = system: MOLT-4
Malme-3M = system: Malme-3M
NCI-H226 = system: NCI-H226
NCI-H23 = system: NCI-H23
NCI-H460 = system: NCI-H460
NCI-H522 = system: NCI-H522
OVCAR-3 = system: OVCAR-3
OVCAR-4 = system: OVCAR-4
OVCAR-5 = system: OVCAR-5
OVCAR-8 = system: OVCAR-8
RPMI-8226 = system: RPMI-8226
RXF 393 = system: RXF 393
SF-268 = system: SF-268
SF-295 = system: SF-295
SF-539 = system: SF-539
SK-MEL-28 = system: SK-MEL-28
SK-MEL-2 = system: SK-MEL-2
SK-MEL-5 = system: SK-MEL-5
SK-OV-3 = system: SK-OV-3
SN12C = system: SN12C
SNB-19 = system: SNB-19
SNB-75 = system: SNB-75
SNB-78 = system: SNB-78
SR = system: SR
SW-620 = system: SW-620
TK-10 = system: TK-10
U-251 = system: U-251
UACC-257 = system: UACC-257
UACC-62 = system: UACC-62
UO-31 = system: UO-31
XF498 = system: XF498
LOX IMVI = system: LOX IMVI
RXF 631 = system: RXF 631

## Cc1c(-c2cc(-c3ccccc3)n[nH]c2=O)c2ccccc2n1C
786-0
  GI50: > 100 µM (inactive)
A498
  GI50: > 100 µM (inactive)
A549
  GI50: > 100 µM (inactive)
ACHN
  GI50: > 100 µM (inactive)
CAKI-1
  GI50: > 100 µM (inactive)
CCRF-CEM
  GI50: > 100 µM (inactive)
COLO 205
  GI50: > 100 µM (inactive)
DLD-1
  GI50: > 100 µM (inactive)
DMS-114
  GI50: > 100 µM (inactive)
DMS-273
  GI50: > 100 µM (inactive)
EKVX
  GI50: > 100 µM (inactive)
HCC 2998
  GI50: > 100 µM (inactive)
HCT-116
  GI50: > 100 µM (inactive)
HCT-15
  GI50: > 100 µM
HL-60
  GI50: > 100 µM (inactive)
HOP-18
  GI50: 71.3 µM (inactive)
HOP-62
  GI50: > 100 µM (inactive)
HOP-92
  GI50: > 100 µM (inactive)
HT-29
  GI50: > 100 µM (inactive)
IGROV-1
  GI50: > 100 µM (inactive)
K562
  GI50: > 100 µM (inactive)
KM-20L2
  GI50: > 100 µM (inactive)
KM12
  GI50: > 100 µM (inactive)
LXFL 529
  GI50: > 100 µM (inactive)
M14
  GI50: > 100 µM (inactive)
M19-MEL
  GI50: > 100 µM (inactive)
MOLT-4
  GI50: > 100 µM (inactive)
Malme-3M
  GI50: > 100 µM (inactive)
NCI-H226
  GI50: > 100 µM (inactive)
NCI-H23
  GI50: > 100 µM (inactive)
NCI-H460
  GI50: > 100 µM (inactive)
NCI-H522
  GI50: > 100 µM (inactive)
OVCAR-3
  GI50: > 100 µM (inactive)
OVCAR-4
  GI50: > 100 µM (inactive)
OVCAR-5
  GI50: > 100 µM (inactive)
OVCAR-8
  GI50: > 100 µM (inactive)
RPMI-8226
  GI50: 76.2 µM (inactive)
RXF 393
  GI50: > 61.7 µM (inactive)
SF-268
  GI50: > 100 µM (inactive)
SF-295
  GI50: > 100 µM (inactive)
SF-539
  GI50: > 100 µM (inactive)
SK-MEL-28
  GI50: > 100 µM (inactive)
SK-MEL-2
  GI50: > 100 µM (inactive)
SK-MEL-5
  GI50: > 100 µM (inactive)
SK-OV-3
  GI50: > 100 µM (inactive)
SN12C
  GI50: > 100 µM (inactive)
SNB-19
  GI50: > 100 µM (inactive)
SNB-75
  GI50: > 100 µM (inactive)
SNB-78
  GI50: > 100 µM (inactive)
SR
  GI50: > 100 µM (inactive)
SW-620
  GI50: > 100 µM (inactive)
TK-10
  GI50: > 100 µM (inactive)
U-251
  GI50: > 100 µM (inactive)
UACC-257
  GI50: > 100 µM (inactive)
UACC-62
  GI50: > 100 µM (inactive)
UO-31
  GI50: > 100 µM (inactive)
XF498
  GI50: > 100 µM (inactive)

## CCC12C=CCN(CCc3c([nH]c4ccccc34)/C=C\1)C2 (stereo not drawn)
786-0
  GI50: > 100 µM (inactive)
A498
  GI50: > 100 µM (inactive)
A549
  GI50: > 100 µM (inactive)
ACHN
  GI50: > 100 µM (inactive)
CAKI-1
  GI50: > 100 µM (inactive)
CCRF-CEM
  GI50: > 100 µM (inactive)
COLO 205
  GI50: > 100 µM (inactive)
DLD-1
  GI50: > 10 µM (inactive)
DMS-114
  GI50: > 100 µM (inactive)
DMS-273
  GI50: > 100 µM (inactive)
EKVX
  GI50: > 100 µM (inactive)
HCC 2998
  GI50: > 100 µM (inactive)
HCT-116
  GI50: > 100 µM (inactive)
HCT-15
  GI50: > 100 µM
HL-60
  GI50: > 100 µM (inactive)
HOP-18
  GI50: > 100 µM (inactive)
HOP-62
  GI50: > 100 µM (inactive)
HT-29
  GI50: > 100 µM (inactive)
IGROV-1
  GI50: > 100 µM (inactive)
K562
  GI50: > 100 µM (inactive)
KM-20L2
  GI50: > 100 µM (inactive)
KM12
  GI50: > 100 µM (inactive)
LOX IMVI
  GI50: > 100 µM (inactive)
LXFL 529
  GI50: > 100 µM (inactive)
M14
  GI50: > 100 µM (inactive)
M19-MEL
  GI50: > 100 µM (inactive)
MOLT-4
  GI50: > 100 µM (inactive)
Malme-3M
  GI50: > 100 µM (inactive)
NCI-H226
  GI50: > 100 µM (inactive)
NCI-H23
  GI50: > 100 µM (inactive)
NCI-H460
  GI50: > 100 µM (inactive)
NCI-H522
  GI50: > 100 µM (inactive)
OVCAR-3
  GI50: > 100 µM (inactive)
OVCAR-4
  GI50: > 100 µM (inactive)
RPMI-8226
  GI50: > 100 µM (inactive)
RXF 631
  GI50: > 100 µM (inactive)
SF-268
  GI50: > 100 µM (inactive)
SF-295
  GI50: > 100 µM (inactive)
SF-539
  GI50: > 100 µM (inactive)
SK-MEL-2
  GI50: > 100 µM (inactive)
SK-MEL-5
  GI50: > 100 µM (inactive)
SN12C
  GI50: > 100 µM (inactive)
SNB-19
  GI50: > 100 µM (inactive)
SNB-75
  GI50: 44.6 µM (inactive)
SR
  GI50: > 100 µM (inactive)
SW-620
  GI50: > 100 µM (inactive)
U-251
  GI50: > 100 µM (inactive)
UACC-257
  GI50: > 100 µM (inactive)
UACC-62
  GI50: > 100 µM (inactive)
UO-31
  GI50: > 100 µM (inactive)
XF498
  GI50: > 100 µM (inactive)
